From patent publication US6559099B1, “Methods for enhancing plant health, protecting plants from biotic and abiotic stress related injuries and enhancing the recovery of plants injured as a result of such stresses” (Wisconsin Alumni Research Foundation, priority 2000, dated 2003)
Values joined by “and” are separate entries in the source; they are usually repeats but may differ in a detail not shown here. Equal entries are not always repeated.

Legend:
Format in all cases: in vivo
[1] = test system: Cucumber (Cucumis sativus inbred line-WI2238) plants; experiment: Protection of chilling injury and recovery, cucumber seedlings; settings: 100 mg/L sprayed twice, 1 hour before and right after 2 days chilling
Procedure: Cucumber (Cucumis sativus inbred line-WI2238) plants were grown in 4 liter plastic pots containing a sterilized mixture of peat:sand:composited soil:field soil (1:1:1:1, v/v) at a greenhouse. Growing conditions and other details were same as in Example 1a. […] After 2 days of chilling treatment at the same conditions as in Example 1a , plants were transferred to a growth chamber maintained at 23±2° C. temperature and 16 hour photoperiod with 400 μmol […] of fluorescent light intensity.

Tomato Plants cv. H9144 [2] = experiment: Protection of chilling injury and enhancement of recovery, tomato seedlings; settings: for Leaf Chlorophyll Mean ± SE / Leaf Phospholipids Mean ± SE / Leaf Water (fresh/dry wt ratio) Mean ± SE: measured 10 days after chilling
Procedure: Tomato Plants cv. […] (cultivar of Heinz Co.) were grown in 20-liter pots containing […], Ohio) in a greenhouse which was supplied with additional tungsten light for a 16 hour photoperiod. […] Control leaf branch was sprayed with distilled water. The LPE solution was prepared by suspending 200 mg of crude […] (Avanti Polar Lipids, Inc., Alabaster, Ala.) in one liter of distilled water and then sonicating for 1 minute before spraying. After 4 days of chilling treatment at 4/2° C. day/night temperatures and a 16 hour photoperiod with 200 μmol m^-2 s^-1 fluorescent light intensity, plants were transferred to a growth chamber maintained at 24/18° C. day/night temperatures and a 16 hour photoperiod with 400 μmol m^-2 s^-1 of fluorescent light intensity. […] When measured 10 days after chilling, LPE-sprayed leaf tissues, either before or after chilling, had higher levels of water, chlorophyll, and phospholipid content than water-sprayed control (see Table 1 below). […] Chilling and recovery conditions were the same as in Example 1a above.

[3] = test system: Sweet corn seeds (SS Jubilee); experiment: Germination and seedling fresh mass of sweet corn seeds soaked in LPE solution; settings: soaked 2 hours
Procedure: Sweet corn seeds (SS Jubilee, certified seed obtained from the Wisconsin Crop Improvement Association, Madison Wis.) were soaked for 2 hours in LPE solution. Seeds were removed from the LPE solution and 50 seeds were placed on 2 paper towels and wetted with distilled water (5 seeds in one row) then seeds were covered with another wet paper towel. The three towels with the seeds were rolled, placed in a metal container and incubated at 25° C. The container was covered with plastic and the cover secured with a rubber band. The germination percentage was tested after 4 and 7 days. The procedure was as specified by the Association of Official Seed Analysts. Four replications were conducted with 50 seeds in each replication. […] Furthermore, LPE treated seeds produced larger (root and shoot) seedlings. SS Jubilee sweet corn seeds were soaked for 2 hours in LPE solution. Seeds were incubated using the same procedure described in Example 6. The germination percentage was tested after 4 and 7 days. Four replications were conducted with 50 seeds in each replication. […] On a commercial level, this means that LPE treatment of the seeds will insure more plants in a given field and that LPE treated seeds will produce plants having a head start.

'Hazel' oat seeds = experiment: Seedling vigour (root and shoot fresh weight) of 'Hazel' oats soaked in LPE or LPC; settings: 10 ppm (each), incubated at 20° C.; for Root fresh wt per seedling / Shoot Fresh wt per seedling: soaked 30 minutes; for Root fresh wt per seedlings / Shoot Fresh wt per seedlings: soaked 2 hours
Source text: Values are mean±SE (4 replications). […] Values are mean±SE (4 replications).

'Hazel' oats = experiment: Germination of 'Hazel' oats soaked in LPE or LPC; settings: 10 ppm (each), incubated at 20° C.
Procedure: ‘Hazel’ oats (Certified seed obtained from the Wisconsin Crop Improvement Association, Madison, Wis.) were soaked in LPE or LPC. Seeds were soaked for either 30 minutes or 2 hours at room temperature (23±2° C.) and then incubated at 20° C. using the official seed germination test rules (Rules for testing seeds are published by the Association of Official Seed Analysts) for testing seeds. Four replications were conducted with 100 seeds in each replication. […] Moreover, a greater proportion of the seeds treated with these lipids, germinated earlier. Thus, this seed treating increased both the rate and amount of seed germination.

[4] = test system: castor bean (Ricinus communis L. cv Hale)
Tomato plants cv. H9478 = experiment: Protection of drought injury and enhancement of recovery
Procedure: Tomato plants cv. […] (cultivar of Heinz Co.) were grown in 20 liter pots and placed in a growth chamber maintained at 24/18° C. day/night temperatures and a 16 hour photoperiod with 400 μmol m^-2s^-1 of cool-white fluorescent lights. Two month-old plants were sprayed with either distilled water, […]) or LPE 18:1 (100 mg/L) before exposure to drought stress. Drought stress was given by withholding water for 2 days. The plants were sprayed once again with distilled water, […]) or LPE 18:1 (100 mg/L) right after water was given (alleviation of water stress). During drought stress, all water, […] 18:1-sprayed plants were severely wilted but regained turgor soon after water was given again.

H.2350 field corn seeds = experiment: Germination and seedling fresh weight of field corn seeds soaked in LPE solution; settings: incubated at 25° C. for 8 days
Procedure: H.2350 (Certified seed obtained from the Wisconsin Crop Improvement Association, Madison, Wis.) field corn seeds were soaked in LPE solution. Seeds were incubated at 25° C. for 8 days using the procedure described in Example 6. Four replications were conducted with 50 seeds in each replication.

Tomato Plants cv. H9144 [5] = experiment: Protection of pesticide (Marathon, imidacloprid) injury and enhancement of recovery; settings: 200 mg/L in 1% ethanol; 10 days after spraying (FIG. 3)
Source text: Marathon with active […] of imidacloprid (available from Olympic Chemical Co., PO Box K, Mainland, Pa.) is a pesticide used for controlling whitefly in plants. This is a systemic pesticide and is introduced to the plant via soil application. As the pesticide accumulates in the foliage the insects feeding on the plants are killed. Sometimes as this chemical accumulates in the plant it can result in phytotoxicity to the plant. To test this, tomato plants cv. […] (cultivar of Heinz Co.) were grown for two (2) months in 20 liter pots in a greenhouse. […] Many leaves lost chlorophyll and plants had poor shoot growth. Three weeks after the treatment of pesticide, […]18:1 or LPI (200 mg/L each) solution containing 1% ethanol were sprayed to the point that solution started to run off the leaves. Control plants were sprayed with distilled water containing 1% ethanol. The LPE solution was prepared by wetting 200 mg of LPE in 1 ml ethanol and then adding distilled water to make 1 liter of total volume. The LPE solution was then sonicated 1 minute before spraying.

[6] = 200 mg/L LPEegg spray, 4 days chilling at 4/2° C., vs water-sprayed control
[7] = 200 mg/L sprayed 1 hour before chilling
[8] = 200 mg/L sprayed right after chilling
[9] = 100 mg/L sprayed before drought and right after water was given, after 2 or 3 days

lysophosphatidylethanolamine [LPE]
chilling damage in leaves [1]: severe chilling damage in leaves | shoot growth after chilling ([1]; after 7 days): vigorous shoot growth | protection from chilling injury (Tomato Plants cv. H9144 [2]; 100 mg/L LPEegg sprayed 1 hour before chilling, vs water-sprayed and non-sprayed controls): most effective in protecting the plant from chilling injury | chilling damage to the leaves (Tomato Plants cv. H9144 [2]; [6]): mitigation of chilling damage to the leaves | shoot meristem growth after chilling (Tomato Plants cv. H9144 [2]; [6]): enhanced shoot meristem growth | Leaf Chlorophyll Mean ± SE (Tomato Plants cv. H9144 [2]; [7]): 21.6 ± 0.1 mg/g dry wt | Leaf Phospholipids Mean ± SE (Tomato Plants cv. H9144 [2]; [7]): 25.9 ± 0.3 nmol/mg dry wt | Leaf Water (fresh/dry wt ratio) Mean ± SE (Tomato Plants cv. H9144 [2]; [7]): 10.1 ± 0.4 fresh/dry wt ratio | Leaf Chlorophyll Mean ± SE (Tomato Plants cv. H9144 [2]; [8]): 28.2 ± 4.0 mg/g dry wt | Leaf Phospholipids Mean ± SE (Tomato Plants cv. H9144 [2]; [8]): 25.7 ± 1.0 nmol/mg dry wt | Leaf Water (fresh/dry wt ratio) Mean ± SE (Tomato Plants cv. H9144 [2]; [8]): 10.81 ± 0.5 fresh/dry wt ratio | Average Fresh Mass Produced from 50 seeds, Root (primary + secondary) ([3]; Table 2, 5 ppm): 1.6 ± 0.4 g | Average Fresh Mass Produced from 50 seeds, Shoot ([3]; Table 2, 5 ppm): 10.0 ± 0.5 g | % Germination After 4 days ([3]; Table 2, 5 ppm, 25° C.): 61.0 ± 1.7% | % Germination After 7 days ([3]; Table 2, 5 ppm, 25° C.): 70.0 ± 2.2% | Average Fresh Mass Produced from 50 seeds, Root (primary + secondary) ([3]; Table 2, 10 ppm): 1.3 ± 0.1 g | Average Fresh Mass Produced from 50 seeds, Shoot ([3]; Table 2, 10 ppm): 8.7 ± 0.2 g | % Germination After 4 days ([3]; Table 2, 10 ppm, 25° C.): 69.0 ± 2.6% | % Germination After 7 days ([3]; Table 2, 10 ppm, 25° C.): 71.5 ± 2.8% | Average Fresh Mass Produced from 50 seeds, Root (primary + secondary) ([3]; Table 2, 20 ppm): 1.2 ± 0.0 g | Average Fresh Mass Produced from 50 seeds, Shoot ([3]; Table 2, 20 ppm): 10.4 ± 0.4 g | % Germination After 4 days ([3]; Table 2, 20 ppm, 25° C.): 60.0 ± 3.6% | % Germination After 7 days ([3]; Table 2, 20 ppm, 25° C.): 65.0 ± 1.3% | % Germination After 4 days ([3]; Table 3 (Example 7), 1 ppm): 68.5 ± 4.0% | % Germination After 7 days ([3]; Table 3 (Example 7), 1 ppm): 76.5 ± 4.6% | Average Fresh Mass Produced from 50 seeds, Root (primary + secondary) ([3]; Table 3 (Example 7), 1 ppm): 0.9 ± 0.1 g | Average Fresh Mass Produced from 50 seeds, Shoot ([3]; Table 3 (Example 7), 1 ppm): 9.1 ± 0.8 g | % Germination After 4 days ([3]; Table 3 (Example 7), 10 ppm): 61.5 ± 5.7% and 73.8 ± 2.8% | % Germination After 7 days ([3]; Table 3 (Example 7), 10 ppm): 68.0 ± 3.4% and 78.0 ± 2.3% | Average Fresh Mass Produced from 50 seeds, Root (primary + secondary) ([3]; Table 3 (Example 7), 10 ppm): 0.8 ± 0.0 g and 1.1 ± 0.1 g | Average Fresh Mass Produced from 50 seeds, Shoot ([3]; Table 3 (Example 7), 10 ppm): 7.6 ± 0.3 g and 10.4 ± 0.4 g | Root fresh wt per seedling ('Hazel' oat seeds): 48.4 ± 1.9 mg | Shoot Fresh wt per seedling ('Hazel' oat seeds): 124.1 ± 3.0 mg | Root fresh wt per seedlings ('Hazel' oat seeds): 46.4 ± 0.6 mg | Shoot Fresh wt per seedlings ('Hazel' oat seeds): 121.1 ± 2.5 mg | % Germination (Mean ± SE) After 4 days ('Hazel' oats; soaked 30 min): 87.7 ± 0.9% and 82.5 ± 1.7% | % Germination (Mean ± SE) After 10 days ('Hazel' oats; soaked 30 min): 91.3 ± 0.7% and 90.8 ± 1.1% | % Germination (Mean ± SE) After 4 days ('Hazel' oats; soaked 2 hours): 82.8 ± 1.1% and 82.0 ± 1.2% | % Germination (Mean ± SE) After 10 days ('Hazel' oats; soaked 2 hours): 94.3 ± 1.3% and 93.5 ± 1.0% | leaf curling and browning after wounding ([4]; after 1 day): much less leaf curling and browning | leaf turgidity after wounding ([4]; in vivo): remained turgid for several days | wound-healing symptoms ([4]; in vivo): leaf damaged areas were healed and gained green color | shoot growth after drought stress (Tomato plants cv. H9478; [9]): vigorous shoot growth | % Germination (H.2350 field corn seeds; 5 ppm): 97.0 ± 0.6% | Fresh Weight Root (primary + secondary), average mass produced from 50 seeds (H.2350 field corn seeds; 5 ppm): 14.2 ± 0.8 g | Fresh Weight Shoot, average mass produced from 50 seeds (H.2350 field corn seeds; 5 ppm): 16.2 ± 0.6 g | % Germination (H.2350 field corn seeds; 10 ppm): 98.5 ± 1.0% | Fresh Weight Root (primary + secondary), average mass produced from 50 seeds (H.2350 field corn seeds; 10 ppm): 13.6 ± 0.3 g | Fresh Weight Shoot, average mass produced from 50 seeds (H.2350 field corn seeds; 10 ppm): 15.6 ± 0.7 g

CCCCCCCC/C=C\CCCCCCCC(=O)OCC(O)COP(=O)(O)OCCN (stereo not drawn) [LPE 18:1]
shoot growth after pesticide injury (Tomato Plants cv. H9144 [5]): vigorous shoot growth | shoot growth after drought stress (Tomato plants cv. H9478; [9]): vigorous shoot growth | shoot growth after drought stress (Tomato plants cv. H9478; 100 mg/L, 7 days after drought stress was alleviated (FIG. 2)): vigorous shoot growth

Lysophosphatidyl choline [LPC]
Root fresh wt per seedling ('Hazel' oat seeds): 40.4 ± 2.7 mg | Shoot Fresh wt per seedling ('Hazel' oat seeds): 108.9 ± 4.5 mg | Root fresh wt per seedlings ('Hazel' oat seeds): 48.9 ± 0.7 mg | Shoot Fresh wt per seedlings ('Hazel' oat seeds): 130.4 ± 2.7 mg

lysophosphatidylinositol [LPI]
shoot growth after pesticide injury (Tomato Plants cv. H9144 [5]): vigorous shoot growth
